Marks after values point to notes of the source that are not given here.
Key:
[1] = DPPH radical scavenging assay; assay type: biochemical; conditions: mean ± SD, triplicate; ND = not determined due to low potency
Method: The capability of the extracts derived from the adult V. coerulea plant and its protocorms to scavenge DPPH radicals was evaluated through a DPPH assay, which was modified from the methods described by Brem et al. (2004). Initially, 20 µL of the sample solution was combined with 180 µL of a DPPH solution, prepared by dissolving […] DPPH in DI water. After incubating the resulting mixture in darkness at room temperature for 30 min, the absorbance was measured at 520 nm using a multimode microplate reader (BMG Labtech GmbH, Ortenberg, Germany). […] Various concentrations of each extract were evaluated, and their DPPH inhibitions were plotted against their logarithmic concentrations to generate dose–response curves. […] L-ascorbic acid was used as the positive control. The analysis was performed in triplicate.

[2] = Ferric-reducing antioxidant power (FRAP) assay; assay type: biochemical; conditions: mean ± SD, triplicate
Method: The capability of the extracts derived from the adult V. coerulea plant and its protocorms to reduce ferric was evaluated through a FRAP assay, which was modified from the methods described by Saeio et al. (2011). Initially, 20 µL of the sample solution was combined with 180 µL of the FRAP solution, prepared by mixing 0.3 M acetate buffer pH 3.6, 10 mM TPTZ in 40 mM HCl solution and 20 mM ferric chloride solution. After incubating the resulting mixture at room temperature for 5 min, the absorbance was measured at 595 nm using a multimode microplate reader (BMG Labtech GmbH, Ortenberg, Germany). The findings were then expressed as the percentage of ferric reducing ability, calculated according to the subsequent equation:Ferric reducing abilities (%) = [(a − b)/a] × 100,(2) where a is the UV absorbance of the combination without a sample, while b is the UV absorbance of the combination with a sample. Various concentrations of each extract were evaluated, and their ferric reducing abilities were plotted against their logarithmic concentrations to generate dose–response curves. […] L-ascorbic acid was used as the positive control. The analysis was performed in triplicate.

[3] = molecular target: collagenase from Clostridium histolyticum; test: Collagenase (MMP-1) inhibition, spectrophotometric assay with FALGPA; assay type: biochemical; conditions: mean ± SD, triplicate; ND = not determined due to low potency
Method: The capability of the extracts derived from the adult V. coerulea plant and its protocorms to inhibit the MMP-1 activities was evaluated through a spectrophotometric assay, which was modified from the methods described by Thring et al. (2009). Initially, an MMP-1 solution at a concentration of 0.1 units/mL was prepared, comprising MMP-1 sourced from C. histolyticum, along with 400 mM NaCl, 10 mM CaCl2, and 50 mM tricine buffer pH 7.5. Subsequently, 20 µL of the sample solution was combined with 20 µL of the MMP-1 solution and 80 µL of Tricine buffer pH 7.5. […] Immediately, the absorbance was measured kinetically at 340 nm for a duration of 20 min using a multimode microplate reader (BMG Labtech GmbH, Ortenberg, Germany). The findings were then expressed as the percentage of MMP-1 inhibition, calculated according to the subsequent equation:MMP-1 inhibition (%) = [(a − b)/a] × 100,(3) where a is the reaction rate of the combination without a sample, while b is the reaction rate of the combination with a sample. Various concentrations of each extract were evaluated, and their MMP-1 inhibitions were plotted against their logarithmic concentrations to generate dose–response curves. The IC50 values were calculated from the curves using GraphPad Prism (version 8.0.2, GraphPad Software, Boston, MA, USA). […]

[4] = molecular target: T1, porcine pancreatic elastase (Sus scrofa, UniProt P00772); test: Elastase inhibition, spectrophotometric assay; assay type: biochemical; conditions: mean ± SD, triplicate; ND = not determined due to low potency
T1 construct: purchased Sigma-Aldrich; host or cells: porcine pancreas
T1 sequence (P00772 27-266): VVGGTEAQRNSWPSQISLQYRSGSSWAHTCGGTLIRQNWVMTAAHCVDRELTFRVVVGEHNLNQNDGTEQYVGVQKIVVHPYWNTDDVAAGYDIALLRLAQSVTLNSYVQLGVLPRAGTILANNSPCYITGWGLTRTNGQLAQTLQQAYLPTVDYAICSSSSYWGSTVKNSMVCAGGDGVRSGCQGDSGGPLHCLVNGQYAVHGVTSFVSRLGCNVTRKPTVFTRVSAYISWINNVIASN
Method: The capability of the extracts derived from the adult V. coerulea plant and its protocorms to inhibit elastase activities was evaluated through a spectrophotometric assay, which was modified from the methods described by Thring et al. (2009). Initially, an elastase solution at a concentration of 0.03 units/mL was prepared, comprising elastase sourced from porcine pancreas, along with 0.2 M Tris-HCl buffer pH 8.0. Subsequently, 10 µL of the sample solution was combined with 40 µL of the elastase solution. After the resulting mixture was incubated for 15 min at ambient temperature, 100 µL of 1.6 mM AAAVPN in tris HCl buffer pH 8.0 was introduced to initiate the enzymatic reaction. Immediately, the absorbance was measured kinetically at 410 nm for a duration of 20 min using a multimode microplate reader (BMG Labtech GmbH, Ortenberg, Germany). […] Various concentrations of each extract were evaluated, and their elastase inhibitions were plotted against their logarithmic concentrations to generate dose–response curves. The IC50 values were calculated from the curves using GraphPad Prism (version 8.0.2, GraphPad Software, Boston, MA, USA). […] was used as the positive control. The analysis was performed in triplicate.

[5] = tested on: chorioallantoic membrane of fertilized hen eggs; test: Hen's egg-chorioallantoic membrane (HET-CAM) irritation test; conditions: 1% w/v, positive control
Method: The irritation potency of the extracts derived from the adult V. coerulea plant and its protocorms was evaluated through a HET-CAM test, which was previously described by Luepke and Kemper (1986). The fertilized black hen eggs from the Pradu Hang Dam Chiang Mai breed aged between 7 and 9 days were used in the HET-CAM test. As the embryos were in the early stages of development, ethical approval was not required. Typically, hen eggs require 21 days of incubation, and the fertilized eggs aged between 7 to 9 days, which was less than halfway through their incubation cycle, were not considered animals. Prior to the test, the eggshell above the air cell was cracked open, and the inner membrane was moistened with a normal saline solution. […] The duration until the first appearance of each irritation sign was meticulously monitored and recorded in seconds, which enabled the subsequent computation of the irritation score (IS) using the following equation:IS = [(301 − t(h))/300] × 5 + [(301 − t(l))/300] × 7 + [(301 − t(c))/300] × 9,(8) where t(h) is the time of the first appearance of hemorrhage in seconds, t(l) is the time of the first appearance of vascular lysis in seconds, and t(c) is the first appearance of vascular coagulation in seconds. […]

| Structure (SMILES) | IC50 DPPH Inhibition [1] | IC50 Ferric Reducing Capacity [2] | IC50 Collagenase Inhibition [3] | IC50 Elastase Inhibition [4] | IC50 [4] | Irritation Level [5] | Irritation Score (IS) [5] |
| --- | --- | --- | --- | --- | --- | --- | --- |
| O=C1O[C@H]([C@@H](O)CO)C(O)=C1O [AS, ascorbic acid] | 3.5 ± 2.9 ^a µg/mL | 2.4 ± 0.7 ^a µg/mL |  |  |  |  |  |
| O=C(O[C@@H]1Cc2c(O)cc(O)cc2O[C@@H]1c1cc(O)c(O)c(O)c1)c1cc(O)c(O)c(O)c1 [EGCG, epigallocatechin gallate] |  |  | 16.9 ± 3.2 ^b µg/mL | 0.1 ± 0.0 ^a µg/mL |  |  |  |
| C[C@@H]1O[C@@H](OC[C@H]2O[C@@H](Oc3c(-c4ccc(O)c(O)c4)oc4cc(O)cc(O)c4c3=O)[C@H](O)[C@@H](O)[C@@H]2O)[C@H](O)[C@H](O)[C@H]1O [RT, rutin] | 3.2 ± 2.7 ^a µg/mL | 12.9 ± 2.0 ^b µg/mL | 7.6 ± 3.4 ^a µg/mL |  | 17.2 µM |  |  |
| CCCCCCCCCCCCOS(=O)(=O)[O-].[Na+] [SLS, sodium lauryl sulfate] |  |  |  |  |  | Severe irritation (9.0–21.0 for severe irritation) | 15.13 ± 0.3 |

Source: article PMC11243638, “Enhanced Antioxidant, Anti-Aging, Anti-Tyrosinase, and Anti-Inflammatory Properties of Vanda coerulea Griff. Ex Lindl. Protocorm through Elicitations with Chitosan” (Plants, 2024)
